Source: the OPERA property sets (Mansouri et al. 2018)

Conditions: for log10 BCF / log10 biotransformation half-life (days): fish

Structure (SMILES) | boiling point [°C] | melting point [°C] | further results
CCCC(=O)OCc1ccccc1 | 239 | – | –
CCC[C@H]1CCCCC1=O | 197 | – | –
NC(=O)NO | – | 141 | –
CC[C@H](C)CBr | 122 | – | –
O=C1CN(N=Cc2ccc(-c3ccc([N+](=O)[O-])cc3)o2)C(=O)N1 | – | 280 | –
FC(F)(F)F | -128 | -184 | log10 Henry constant (atm·m³/mol): 0.712; log10 Koa: -0.95; log10 vapour pressure (mmHg): 5.24
CCOC(=O)c1sc(N)nc1C(F)(F)F | – | 186 | –
CCOc1cccc(C=O)c1O | 264 | 67 | –
Nc1ccc(OCCCCCN2C(=O)c3ccccc3C2=O)cc1 | – | 114 | –
CCOC(=O)c1ccc(NC(=O)CCl)cc1 | – | – | ready biodegradability: readily biodegradable
CC/C=C\C(C)(C)C | – | -137 | –
CCCCC(O)(Cn1cncn1)c1ccc(Cl)cc1Cl (stereo not given) | – | 111 | log10 vapour pressure (mmHg): -6.87
ClCC(Cl)CCl | 157 | -14.7 | log10 Henry constant (atm·m³/mol): -3.46; log10 vapour pressure (mmHg): 0.567; ready biodegradability: not readily biodegradable; log10 BCF: 1.11; log10 biotransformation half-life (days): -0.53
N[C@H](Cc1ccccc1)c1ccccc1 | 311 | – | –
CC1=CC(=O)c2ccccc2C1=O | – | 107 | –
Nc1ccccc1N | 257 | 102 | log10 vapour pressure (mmHg): -2.69; ready biodegradability: not readily biodegradable
O=C(OCCOC(=O)C(Cl)(Cl)Cl)C(Cl)(Cl)Cl | – | 40 | –
COc1c(Cl)ccc(Cl)c1Cl | 227 | 45 | log10 Henry constant (atm·m³/mol): -3.54; log10 BCF: 2.52
O=C(O)c1cccc2cccnc12 | – | 187 | –
N#Cc1cccc(C(=O)O)c1 | – | 219 | –
CC1=C(/C=C/C(C)=C/C=C/C(C)=C/C(=O)O)C(C)(C)CCC1 | – | 181 | –
CC1OC(OCC2OC(Oc3c(-c4ccc(O)cc4)oc4cc(OC5OC(C)C(O)C(O)C5O)cc(O)c4c3=O)C(O)C(O)C2O)C(O)C(O)C1O (stereo not given) | – | 250 | –
CC(Br)C(Br)Br (stereo not given) | 200 | – | –

Structure (SMILES) | boiling point [°C] | melting point [°C] | further results
Oc1cccc(C(F)(F)F)c1 | 178 | -1.8 | –
ClC[Si](Cl)(Cl)Cl | 118 | – | –
CNCCN(C)C | 117 | – | –
Cc1cccc(C(=O)N(NC(=O)c2ccccc2)C(C)(C)C)c1 | – | 211 | –
CC[N+](C)(CC)CCOC(=O)C(O)(c1cccs1)C1CCCC1.[Br-] (stereo not given) | – | 125 | –
CCCCCCOCC | 143 | – | –
N=C(N)NCCC[C@H](N)C(=O)O | – | – | ready biodegradability: readily biodegradable
COC(=O)Nc1nc2ccc(C(=O)c3ccc(F)cc3)cc2[nH]1 | – | 260 | –
Nc1nc2ccccc2[nH]1 | – | 230 | –
O=P(N1CC1)(N1CC1)N1CC1 | – | 41 | –
C/C=C/CCC | 66.5 | -98 | –
CC1CCC(C(C)C)C(O)C1 (stereo not given) | – | 39 | log10 vapour pressure (mmHg): -1.08; ready biodegradability: not readily biodegradable; log10 BCF: 1.03; log10 biotransformation half-life (days): -1.19
COc1cc(C(=O)O)cc(OC)c1O | – | 208 | ready biodegradability: readily biodegradable
O=C1OC(=O)c2c1ccc(Cl)c2Cl | 329 | 121 | –
CC=C(C)Br | 99.8 | – | –
CC(=O)c1c(C)c([N+](=O)[O-])c(C(C)(C)C)c([N+](=O)[O-])c1C | – | 136 | –
Oc1ccc2ccc3cccc4ccc1c2c34 | – | 180 | log10 vapour pressure (mmHg): -8.32
CCC(Br)=CBr | 150 | -49.5 | –
CCC(C)(Cl)Cl | 104 | -74 | –
C=CCc1cccc(C)c1O | 232 | – | –
C#CC(C)(C)NC(=O)c1ccc(C)cc1 | – | – | log10 Koc (L/kg): 1.76
CCCC(N)CCC | 140 | – | –
COC(=O)c1sccc1S(=O)(=O)NC(=O)Nc1nc(C)nc(OC)n1 | – | 176 | log10 Koc (L/kg): 1.45; log10 vapour pressure (mmHg): -9.89

Structure (SMILES) | boiling point [°C] | melting point [°C] | further results
Cc1ccccc1CBr | 217 | 21 | –
Clc1cccc(-c2ccccc2)c1Cl | – | – | log10 Henry constant (atm·m³/mol): -3.64; log10 BCF: 3.98; log10 biotransformation half-life (days): 2.15
O=[N+]([O-])c1cccc(F)c1 | 199 | 41 | –
CCCCC(=O)CC | 147 | -39 | log10 vapour pressure (mmHg): 0.415
CCN(CC)c1cccc(O)c1 | 276 | 78 | –
CCO[Si](CCCN)(OCC)OCC | 217 | – | ready biodegradability: not readily biodegradable
O=C(O)c1cccc(C(=O)O)c1O | – | 244 | –
CC(c1ccccc1)c1ccccc1O (stereo not given) | – | – | ready biodegradability: not readily biodegradable
Cc1ccc(C)s1 | 136 | -62.6 | log10 vapour pressure (mmHg): 0.994
O=C1CCCCCCCCC1=O | – | 40.5 | –
O=C(O)[C@H]1CC[C@H](C(=O)O)CC1 | – | 312 | –
CCOP(=S)(OCC)SCCSCC | – | -25 | log10 Koc (L/kg): 3.22; log10 vapour pressure (mmHg): -4.01; log10 BCF: 2.34; log10 biotransformation half-life (days): 0.03
CCC(C)OC=O (stereo not given) | 97 | – | –
Cc1cccc2cc3ccccc3cc12 | – | 85.5 | –
CCCCCC[C@H](C)S | – | – | log10 vapour pressure (mmHg): -0.147
CCCCCCCCCCC(C)O (stereo not given) | 252 | 19 | –
OCc1ccc(Cl)c(Cl)c1 | 150 | 36 | log10 BCF: 0.54
BrCc1ccc2ccccc2c1 | – | 56 | –
Cc1ccc(N)cc1N | 292 | 99 | log10 vapour pressure (mmHg): -3.77; ready biodegradability: not readily biodegradable; log10 BCF: 1.7
CCCc1ccco1 | 115 | – | –
Clc1cc(Cl)cc(-c2ccccc2Cl)c1 | – | – | log10 Henry constant (atm·m³/mol): -3.7
COC1CCC(OC)O1 (stereo not given) | 146 | – | –
C=C(C)[C@@H]1CC[C@]2(C)CC[C@]3(C)[C@H](CC[C@@H]4[C@@]5(C)CC[C@H](O)C(C)(C)[C@@H]5CC[C@]43C)[C@@H]12 | – | 216 | –

Structure (SMILES) | boiling point [°C] | melting point [°C] | further results
O=C(O)COc1cccc(Cl)c1Cl | – | 174 | –
CC1=C(C)C(=O)OC1=O | 223 | 96 | –
CCOC(=O)C(C(=O)OCC)C(C)C | 215 | – | –
O=CC=Cc1ccc([N+](=O)[O-])cc1 | – | 142 | –
CCCCCCCCCCCCF | – | – | log10 vapour pressure (mmHg): -0.682
Cc1c(Cl)c(C)c(Cl)c(Cl)c1Cl | – | 223 | –
Nc1ccc2ncccc2c1 | – | 114 | log10 vapour pressure (mmHg): -4.79
COc1nccnc1NS(=O)(=O)c1ccc(N)cc1 | – | 176 | –
ClC#CCl | 33 | -66 | –
FC(F)(F)c1ccccc1Br | 168 | – | –
CC(C)=CCC1C(=O)N(c2ccccc2)N(c2ccccc2)C1=O | – | 156 | –
Cc1cc(F)ccc1N | – | 14.2 | –
O=C(O)c1ccc(O)c([N+](=O)[O-])c1 | – | 230 | –
CCON=O | 18 | – | –
CC1CCCCN1CCCOC(=O)c1ccc(Cl)c(Cl)c1 (stereo not given) | – | – | log10 Koc (L/kg): 3.7
CC(=O)c1cccc(Cl)c1 | 244 | – | –
Cc1cnccn1 | 137 | -29 | log10 Henry constant (atm·m³/mol): -5.66; log10 vapour pressure (mmHg): 0.906
CC(C)F | -10 | – | –
CCCCCCCCCCCCCCCC(=O)Cl | – | 12 | –
CCCCOCCOC(=O)CCCOc1ccc(Cl)cc1Cl | – | – | log10 Koc (L/kg): 2.7
O=C(c1ccccc1)c1ccc(Br)cc1 | 350 | 82.5 | –
c1ccc(P(c2ccccc2)c2ccccc2)cc1 | – | 80 | –
O=C(O)CCCCCCCCCCBr | – | 57 | –

Structure (SMILES) | boiling point [°C] | melting point [°C] | further results
O=[N+]([O-])c1ccc2c(c1)Cc1ccccc1-2 | – | 157 | –
O=C(O)Cc1c(-c2ccccc2)c(-c2ccccc2)nn1-c1ccccc1 | – | 200 | –
CCN(CC)CCC1(c2ccccc2)C(=O)Oc2ccccc21 (stereo not given) | – | 43.4 | –
NC(=O)OCCCc1ccccc1 | – | 102 | –
Clc1cc2c(cc1Cl)Oc1c(cc(Cl)c(Cl)c1Cl)O2 | – | 240 | log10 Koa: 10.6; log10 vapour pressure (mmHg): -9.36; log10 BCF: 4.26; log10 biotransformation half-life (days): 1.56
O=c1c(O)c(-c2ccccc2)oc2cc(O)cc(O)c12 | – | 214 | –
CC(=O)Nc1ccc(OC(=O)c2ccccc2OC(C)=O)cc1 | – | 175 | –
CCSc1nc(NC(C)C)nc(NC(C)C)n1 | – | 105 | log10 Koc (L/kg): 3.07; log10 vapour pressure (mmHg): -5.8
CC(C)(O)C(Cl)(Cl)Cl | 167 | 97 | ready biodegradability: not readily biodegradable; log10 BCF: 0.23
COc1ccc(N)c(OC)c1 | – | 33.5 | –
CCN(N)c1ccccc1 | 237 | – | –
N#Cc1cnc2ccccc2c1 | – | 109 | –
O=C(O)c1cnccn1 | – | – | ready biodegradability: readily biodegradable
CCCC(C)(COC(N)=O)COC(N)=O | – | 105 | –
Cn1c(=O)ccc2ccccc21 | 325 | 74 | –
CC(c1ccccc1)C1CCCCC1 (stereo not given) | 265 | – | –
Cc1ccc(CO)c(C)c1 | 232 | 22 | –
FC(F)(F)C(F)(F)C(F)(F)N(C(F)(F)C(F)(F)C(F)(F)F)C(F)(F)C(F)(F)C(F)(F)F | 130 | -52 | –
CCCCCCCC(=O)OC(C)C | – | – | log10 vapour pressure (mmHg): -0.963
O=C(Cl)CCCCl | 174 | – | –
C[Si](C)(C)O[Si](C)(C)O[Si](C)(C)O[Si](C)(C)O[Si](C)(C)O[Si](C)(C)O[Si](C)(C)O[Si](C)(C)O[Si](C)(C)O[Si](C)(C)O[Si](C)(C)C | 323 | – | –
Nc1c(Br)cccc1Br | 263 | 87.5 | –
CCCCB(Cl)CCCC | 173 | – | –

Structure (SMILES) | boiling point [°C] | melting point [°C] | further results
O=[N+]([O-])c1ccc(I)cc1 | 288 | 175 | –
Nc1ccc2[nH]ncc2c1 | – | 176 | –
O=C(O)c1nn(Cc2ccc(Cl)cc2Cl)c2ccccc12 | – | 207 | –
COc1nn(CSP(=S)(OC)OC)c(=O)s1 | – | 39 | log10 Koc (L/kg): 1.53; log10 vapour pressure (mmHg): -5.47; log10 BCF: 0.74; log10 biotransformation half-life (days): -1.15
O=c1occc2ccccc12 | 286 | 47 | –
CC(=O)Nc1cccc(C(F)(F)F)c1 | – | 104 | log10 Koc (L/kg): 1.75
C/C=C(\C)C=O | 117 | – | –
CCCN(CCC)C(=O)SCc1ccccc1 | – | – | log10 vapour pressure (mmHg): -6.29
O=C(OCCO)c1ccc(C(=O)OCCO)cc1 | – | – | ready biodegradability: readily biodegradable
CC=CC(=O)Cl | 124 | – | –
OCC1CCC(CO)O1 (stereo not given) | 265 | – | –
Cn1c(=O)c2c(ncn2CN2CCOCC2)n(C)c1=O | – | 177 | –
OCc1cccc2ccccc12 | 304 | 64 | log10 Koc (L/kg): 2.17
Nc1ccc(Cl)cc1Cl | 245 | 63.5 | log10 Koc (L/kg): 2.72; ready biodegradability: not readily biodegradable; log10 BCF: 1.36; log10 biotransformation half-life (days): -0.65
CCN(CC)C(=O)CSc1ccc(Cl)nn1 | – | 97 | ready biodegradability: not readily biodegradable
O=C[C@H](O)CO | – | 145 | –
CC12CC3CC(C)(C1)CC(N)(C3)C2 | – | 258 | –
CCCN.Cl | – | 161 | –
